#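 Tested at 5 concentrations; 48 h exposure; 96-well plates; endpoints linearly interpolated, else capped at highest concentration. GI50 marks 50% less growth. At the TGI there is no net growth.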
# Key:
# Assay in all cases: growth of human tumour cells (NCI), 48 h
# CAKI-1 renal = tested on: CAKI-1 renal
# UO-31 renal = tested on: UO-31 renal
# MALME-3M melanoma = tested on: MALME-3M melanoma
# OVCAR-3 ovarian = tested on: OVCAR-3 ovarian
# 786-0 renal = tested on: 786-0 renal
# M14 melanoma = tested on: M14 melanoma
# HCC-2998 colon = tested on: HCC-2998 colon
# BT-549 breast = tested on: BT-549 breast
# HL-60(TB) leukemia = tested on: HL-60(TB) leukemia
# SNB-75 CNS = tested on: SNB-75 CNS
# OVCAR-5 ovarian = tested on: OVCAR-5 ovarian
# KM12 colon = tested on: KM12 colon
# RXF 393 renal = tested on: RXF 393 renal
# MOLT-4 leukemia = tested on: MOLT-4 leukemia
# SK-MEL-2 melanoma = tested on: SK-MEL-2 melanoma
# SNB-19 CNS = tested on: SNB-19 CNS
# HOP-92 NSCLC = tested on: HOP-92 NSCLC
# SR leukemia = tested on: SR leukemia
# HOP-62 NSCLC = tested on: HOP-62 NSCLC
# SN12C renal = tested on: SN12C renal
# DU-145 prostate = tested on: DU-145 prostate
# NCI/ADR-RES ovarian = tested on: NCI/ADR-RES ovarian
# OVCAR-8 ovarian = tested on: OVCAR-8 ovarian
# OVCAR-4 ovarian = tested on: OVCAR-4 ovarian
# ACHN renal = tested on: ACHN renal
# HS 578T breast = tested on: HS 578T breast
# U251 CNS = tested on: U251 CNS
# EKVX NSCLC = tested on: EKVX NSCLC
# TK-10 renal = tested on: TK-10 renal
# UACC-62 melanoma = tested on: UACC-62 melanoma
# MDA-MB-435 = tested on: MDA-MB-435
# SF-295 CNS = tested on: SF-295 CNS
# SK-MEL-5 melanoma = tested on: SK-MEL-5 melanoma
# A549 NSCLC = tested on: A549 NSCLC
# HCT-15 colon = tested on: HCT-15 colon
# K-562 leukemia = tested on: K-562 leukemia
# CCRF-CEM leukemia = tested on: CCRF-CEM leukemia
# IGROV1 ovarian = tested on: IGROV1 ovarian
# NCI-H460 lung = tested on: NCI-H460 lung
# A498 renal = tested on: A498 renal
# HCT-116 colon = tested on: HCT-116 colon
# PC-3 prostate = tested on: PC-3 prostate
# LOX IMVI melanoma = tested on: LOX IMVI melanoma
# SK-MEL-28 melanoma = tested on: SK-MEL-28 melanoma
# MDA-MB-231 breast = tested on: MDA-MB-231 breast
# MCF7 breast = tested on: MCF7 breast
# HT29 colon = tested on: HT29 colon
# RPMI-8226 leukemia = tested on: RPMI-8226 leukemia
# NCI-H522 lung = tested on: NCI-H522 lung
# NCI-H23 lung = tested on: NCI-H23 lung
# SF-539 CNS = tested on: SF-539 CNS
# T-47D breast = tested on: T-47D breast
# NCI-H226 lung = tested on: NCI-H226 lung
# SK-OV-3 ovarian = tested on: SK-OV-3 ovarian
# SF-268 CNS = tested on: SF-268 CNS
# SW-620 colon = tested on: SW-620 colon
# UACC-257 melanoma = tested on: UACC-257 melanoma
# COLO 205 colon = tested on: COLO 205 colon
smiles,measurement,setting,value
Cc1cc2c(F)c(Oc3ncnc(Nc4ccc(N5C[C@@H](C)N[C@@H](C)C5)cc4)c3C#N)cc(F)c2[nH]1,GI50,CAKI-1 renal,2.99 µM
same,TGI,CAKI-1 renal,10.9 µM
same,GI50,UO-31 renal,1.1 µM
same,TGI,UO-31 renal,3.39 µM
same,GI50,MALME-3M melanoma,1.61 µM
same,TGI,MALME-3M melanoma,3.48 µM
same,GI50,OVCAR-3 ovarian,1.75 µM
same,TGI,OVCAR-3 ovarian,3.46 µM
same,GI50,786-0 renal,1.62 µM
same,TGI,786-0 renal,3.64 µM
same,GI50,M14 melanoma,1.87 µM
same,TGI,M14 melanoma,3.59 µM
same,GI50,HCC-2998 colon,1.97 µM
same,TGI,HCC-2998 colon,4.14 µM
same,GI50,BT-549 breast,0.816 µM
same,TGI,BT-549 breast,2.38 µM
same,GI50,HL-60(TB) leukemia,1.93 µM
same,TGI,HL-60(TB) leukemia,3.95 µM
same,GI50,SNB-75 CNS,1.1 µM
same,TGI,SNB-75 CNS,3.18 µM
same,GI50,OVCAR-5 ovarian,2.8 µM
same,TGI,OVCAR-5 ovarian,8.68 µM
same,GI50,KM12 colon,2.55 µM
same,TGI,KM12 colon,7.3 µM
same,GI50,RXF 393 renal,0.641 µM
same,TGI,RXF 393 renal,2.44 µM
same,GI50,MOLT-4 leukemia,1.67 µM
same,TGI,MOLT-4 leukemia,5.44 µM
same,GI50,SK-MEL-2 melanoma,2.2 µM
same,TGI,SK-MEL-2 melanoma,4.67 µM
same,GI50,SNB-19 CNS,5.07 µM
same,TGI,SNB-19 CNS,18.8 µM
same,GI50,HOP-92 NSCLC,2.07 µM
same,TGI,HOP-92 NSCLC,8.85 µM
same,GI50,SR leukemia,1.63 µM
same,TGI,SR leukemia,4.35 µM
same,GI50,HOP-62 NSCLC,2.86 µM
same,TGI,HOP-62 NSCLC,9.87 µM
same,GI50,SN12C renal,3.39 µM
same,TGI,SN12C renal,14.3 µM
same,GI50,DU-145 prostate,3.31 µM
same,TGI,DU-145 prostate,11.1 µM
same,GI50,NCI/ADR-RES ovarian,3.85 µM
same,TGI,NCI/ADR-RES ovarian,20.9 µM
same,GI50,OVCAR-8 ovarian,2.8 µM
same,TGI,OVCAR-8 ovarian,9.11 µM
same,GI50,OVCAR-4 ovarian,1.22 µM
same,TGI,OVCAR-4 ovarian,6.04 µM
same,GI50,ACHN renal,2.05 µM
same,TGI,ACHN renal,4.21 µM
same,GI50,HS 578T breast,1.77 µM
same,TGI,HS 578T breast,5.4 µM
same,GI50,U251 CNS,1.72 µM
same,TGI,U251 CNS,4.47 µM
same,GI50,EKVX NSCLC,3.39 µM
same,TGI,EKVX NSCLC,14.7 µM
same,GI50,TK-10 renal,2.65 µM
same,TGI,TK-10 renal,6.31 µM
same,GI50,UACC-62 melanoma,2.37 µM
same,TGI,UACC-62 melanoma,4.89 µM
same,GI50,MDA-MB-435,2.03 µM
same,TGI,MDA-MB-435,4.61 µM
same,GI50,SF-295 CNS,1.95 µM
same,TGI,SF-295 CNS,3.94 µM
same,GI50,SK-MEL-5 melanoma,1.71 µM
same,TGI,SK-MEL-5 melanoma,3.13 µM
same,GI50,A549 NSCLC,2.84 µM
same,TGI,A549 NSCLC,8.02 µM
same,GI50,HCT-15 colon,1.73 µM
same,TGI,HCT-15 colon,4.24 µM
same,GI50,K-562 leukemia,1.62 µM
same,TGI,K-562 leukemia,3.83 µM
same,GI50,CCRF-CEM leukemia,1.64 µM
same,TGI,CCRF-CEM leukemia,9.16 µM
same,GI50,IGROV1 ovarian,2.48 µM
same,TGI,IGROV1 ovarian,6.91 µM
same,GI50,NCI-H460 lung,2.06 µM
same,TGI,NCI-H460 lung,4.37 µM
same,GI50,A498 renal,0.0134 µM
same,TGI,A498 renal,0.384 µM
same,GI50,HCT-116 colon,1.69 µM
same,TGI,HCT-116 colon,3.2 µM
same,GI50,PC-3 prostate,3.05 µM
same,TGI,PC-3 prostate,11.4 µM
same,GI50,LOX IMVI melanoma,1.6 µM
same,TGI,LOX IMVI melanoma,3.08 µM
same,GI50,SK-MEL-28 melanoma,1.96 µM
same,TGI,SK-MEL-28 melanoma,3.7 µM
same,GI50,MDA-MB-231 breast,1.98 µM
same,TGI,MDA-MB-231 breast,4.39 µM
same,GI50,MCF7 breast,1.7 µM
same,TGI,MCF7 breast,4.29 µM
same,GI50,HT29 colon,0.583 µM
same,TGI,HT29 colon,2.49 µM
same,GI50,RPMI-8226 leukemia,1.72 µM
same,TGI,RPMI-8226 leukemia,4.33 µM
same,GI50,NCI-H522 lung,2.14 µM
same,TGI,NCI-H522 lung,4.54 µM
same,GI50,NCI-H23 lung,2.44 µM
same,TGI,NCI-H23 lung,11.3 µM
same,GI50,SF-539 CNS,1.53 µM
same,TGI,SF-539 CNS,2.94 µM
same,GI50,T-47D breast,1.97 µM
same,TGI,T-47D breast,5.57 µM
same,GI50,NCI-H226 lung,1.39 µM
same,TGI,NCI-H226 lung,11.6 µM
same,GI50,SK-OV-3 ovarian,3.91 µM
same,TGI,SK-OV-3 ovarian,13.7 µM
same,GI50,SF-268 CNS,2.07 µM
same,TGI,SF-268 CNS,8.36 µM
same,GI50,SW-620 colon,1.83 µM
same,TGI,SW-620 colon,4.1 µM
same,GI50,UACC-257 melanoma,2.06 µM
same,TGI,UACC-257 melanoma,4.04 µM
same,GI50,COLO 205 colon,1.68 µM
same,TGI,COLO 205 colon,3.58 µM

# Source: PubChem BioAssay (NCI)
